We go through nine compounds from PubChem BioAssay (NCI).

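Dose response: 5 concentrations. Exposure: 48 h. Format: 96-well plates. Endpoint: linear interpolation; highest concentration if not reached. GI50: concentration for 50% inhibition of growth. Definition used: TGI = concentration required for complete inhibition of growth.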

Test systems include HS 578T breast; SN12C renal; U251 CNS; HT29 colon; HOP-62 NSCLC; NCI/ADR-RES ovarian; MDA-MB-435; UO-31 renal; A498 renal; UACC-62 melanoma.
Experiment in all cases: inhibition of tumour cell growth, NCI panel, 48 h

For the compound `O=C1OCC2=C1C(c1ccccc1)c1cc3c(cc1N2)OCO3` (stereo not drawn), the GI50 in the experiment with HS 578T breast is 0.0469 µM; in the experiment on SN12C renal, 0.0557 µM; in the experiment with U251 CNS it was 0.0409 µM; in the experiment with HT29 colon, 0.0351 µM; in the experiment on HOP-62 NSCLC, 0.0462 µM; in the experiment on NCI/ADR-RES ovarian, 0.0204 µM. The results for the GI50 in the experiment with UO-31 renal, in the experiment with A498 renal and in the experiment with UACC-62 melanoma were 0.332 µM, 0.0159 µM and 0.0328 µM, respectively. Besides, the TGI with HS 578T breast was > 84.4 µM; with SN12C renal it was > 65 µM; with U251 CNS, > 50.1 µM; in the experiment with HT29 colon, > 59 µM; with HOP-62 NSCLC, 33.4 µM; in the experiment with NCI/ADR-RES ovarian, 1.62 µM. The TGI in the experiment on MDA-MB-435 is 0.026 µM; in the experiment on UO-31 renal, > 100 µM; in the experiment with A498 renal, 0.498 µM; in the experiment on UACC-62 melanoma, > 100 µM.
For `O=C1OC(=O)C(=C\c2ccc3c(c2)OCO3)/C1=C/c1ccc2c(c1)OCO2`, the TGI in the experiment with HS 578T breast, in the experiment with SN12C renal, in the experiment on U251 CNS, in the experiment on HT29 colon, in the experiment on HOP-62 NSCLC and in the experiment on NCI/ADR-RES ovarian was > 100 µM in each case. The TGI with MDA-MB-435, in the experiment with UO-31 renal, with A498 renal and in the experiment on UACC-62 melanoma was > 100 µM each time.
For the compound `O=C(/C=C/c1ccccc1)CCN1CCOCC1`, the TGI was > 88.5 µM in the experiment with HS 578T breast; 35.9 µM in the experiment with SN12C renal; 31.7 µM with U251 CNS; 32.8 µM in the experiment on HT29 colon; 64 µM in the experiment with HOP-62 NSCLC; 55.5 µM in the experiment with NCI/ADR-RES ovarian. Also, the TGI worked out at 30.9 µM with MDA-MB-435, 26.6 µM in the experiment on UO-31 renal, 44 µM with A498 renal and 31.1 µM in the experiment with UACC-62 melanoma.
Turning to `CNCCCNCCCCNCCCN1C(=O)c2ccc3c4c(ccc(c24)C1=O)C(=O)N(CCCNCc1ccccc1OC)C3=O`, the GI50 with HS 578T breast was 2.9 µM; in the experiment with SN12C renal, 2.95 µM; in the experiment with U251 CNS, 3.24 µM; in the experiment on HT29 colon it was 3.36 µM; in the experiment with HOP-62 NSCLC it was 2.33 µM; in the experiment on NCI/ADR-RES ovarian, 7.09 µM. In addition, the GI50 is 0.795 µM with MDA-MB-435, 4.31 µM with UO-31 renal, 1.78 µM with A498 renal and 0.711 µM in the experiment with UACC-62 melanoma. Also, the TGI is 22 µM in the experiment with HS 578T breast; 20.5 µM in the experiment on SN12C renal; 18 µM in the experiment with U251 CNS; 16.4 µM with HT29 colon; 25.6 µM in the experiment with HOP-62 NSCLC; > 100 µM in the experiment on NCI/ADR-RES ovarian. The TGI worked out at 6.21 µM in the experiment with MDA-MB-435, 36.8 µM in the experiment on UO-31 renal, 13.3 µM in the experiment with A498 renal and 5.06 µM in the experiment with UACC-62 melanoma.
Take `O=C1OCC2=C1C(c1ccc(Cl)c(Cl)c1)c1cc3c(cc1N2CCO)OCCO3` (stereo not drawn): the GI50 was 0.273 µM in the experiment with HS 578T breast; 0.688 µM with SN12C renal; 0.206 µM in the experiment on U251 CNS; 0.148 µM in the experiment on HT29 colon; 0.295 µM with HOP-62 NSCLC; 0.239 µM with NCI/ADR-RES ovarian. Moreover, the GI50 in the experiment with MDA-MB-435 is 0.102 µM; with UO-31 renal, 0.256 µM; in the experiment with A498 renal it was 0.147 µM; in the experiment with UACC-62 melanoma it was 0.192 µM. The TGI in the experiment on HS 578T breast was > 37.6 µM; in the experiment with SN12C renal, 20 µM; in the experiment on U251 CNS, 12.7 µM; in the experiment on HT29 colon, 0.502 µM; with HOP-62 NSCLC, 15.1 µM; in the experiment on NCI/ADR-RES ovarian, 3 µM. The TGI came to 0.468 µM in the experiment on MDA-MB-435, 30.6 µM in the experiment on UO-31 renal, 1.84 µM with A498 renal and 10.8 µM in the experiment with UACC-62 melanoma.
On to `COc1cc2c(cc1C1COc3cc4occc4cc3C1=O)OCO2` (stereo not drawn), for which the TGI with HS 578T breast is 89.8 µM; in the experiment on SN12C renal it was > 100 µM; in the experiment on U251 CNS, > 100 µM; in the experiment on HT29 colon it was > 100 µM; with HOP-62 NSCLC, > 100 µM; with NCI/ADR-RES ovarian, > 100 µM. Moreover, the TGI in the experiment on MDA-MB-435, in the experiment with UO-31 renal, with A498 renal and with UACC-62 melanoma was > 100 µM each time.
For the compound `O=C1CCC(N2Cc3cc(CNC(=O)C(F)(F)c4ccc(Cl)cc4)ccc3C2=O)C(=O)N1` (stereo not drawn), the GI50 with HS 578T breast was 1.71 µM; with SN12C renal, > 100 µM; in the experiment with U251 CNS, > 100 µM; in the experiment on HT29 colon it was > 100 µM; with HOP-62 NSCLC, 3.02 µM; in the experiment on NCI/ADR-RES ovarian, 29.2 µM. Further, the GI50 with MDA-MB-435 was > 100 µM; with UO-31 renal it was 0.32 µM; in the experiment on A498 renal, 8.17 µM; in the experiment on UACC-62 melanoma, > 100 µM. The TGI with HS 578T breast, with SN12C renal, in the experiment on U251 CNS, in the experiment with HT29 colon, in the experiment with HOP-62 NSCLC and with NCI/ADR-RES ovarian was > 100 µM each time. Further, the TGI in the experiment on MDA-MB-435, in the experiment on UO-31 renal, in the experiment with A498 renal and with UACC-62 melanoma was > 100 µM each time.
As to `CC(C)NCCCn1c(Sc2cc3c(cc2I)OCO3)nc2c(N)ncnc21`, the GI50 in the experiment on HS 578T breast was 1.28 µM; with SN12C renal, 0.174 µM; with U251 CNS it was 0.128 µM; with HT29 colon, 0.0381 µM; in the experiment on HOP-62 NSCLC it was 0.263 µM; with NCI/ADR-RES ovarian, 3.66 µM. In addition, the GI50 in the experiment on MDA-MB-435 was 0.0919 µM; in the experiment with UO-31 renal, 0.323 µM; in the experiment on A498 renal it was 0.435 µM; in the experiment on UACC-62 melanoma it was 0.368 µM. Also, the TGI in the experiment on HS 578T breast was > 100 µM; in the experiment with SN12C renal it was > 100 µM; in the experiment on U251 CNS, > 100 µM; in the experiment with HT29 colon, > 83.2 µM; in the experiment on HOP-62 NSCLC, > 100 µM; in the experiment with NCI/ADR-RES ovarian, > 100 µM. Further, the TGI in the experiment with MDA-MB-435 is 42 µM; in the experiment on UO-31 renal, 7.13 µM; in the experiment on A498 renal, 5.6 µM; in the experiment on UACC-62 melanoma, > 41 µM.
For the compound `Cc1ccc(/C=N\NC(=O)c2[nH]c3ccc(F)cc3c2-c2ccccc2)cc1`, the GI50 is 0.0375 µM with HS 578T breast; 0.0436 µM in the experiment with SN12C renal; 0.0378 µM in the experiment with U251 CNS; 0.0291 µM in the experiment on HT29 colon; 0.0422 µM with HOP-62 NSCLC; 0.0238 µM in the experiment with NCI/ADR-RES ovarian. The GI50 with MDA-MB-435 is 0.0217 µM; in the experiment on UO-31 renal, 0.0472 µM; in the experiment with A498 renal it was 0.0387 µM; with UACC-62 melanoma it was 0.0516 µM. Also, the TGI with SN12C renal is > 100 µM; in the experiment with U251 CNS, > 58.9 µM; in the experiment on HT29 colon it was 11.6 µM; in the experiment with HOP-62 NSCLC, 5.88 µM; with NCI/ADR-RES ovarian, 1.91 µM; in the experiment on MDA-MB-435, 0.0495 µM. The values for the TGI in the experiment with UO-31 renal, in the experiment on A498 renal and in the experiment on UACC-62 melanoma were > 46 µM, 24.5 µM and > 58.6 µM, respectively.
